Drawing on patent publication US4613607A, “Medicaments based on derivatives of 1-(4-quinolyl)-2-(4-piperidyl)-ethanol or 1-(4-quinolyl)-3-(4-piperidyl)-propanol” (Pharmuka Laboratoires, priority 1980, dated 1986), this text covers ED50 and LD50 for ten compounds.

Counter-ions that a name gives are not always drawn. Like-named read-outs stand apart in the source and are kept apart here.

In data set [1] the test system is fibrillations caused by an inhalation of chloroform. As to the kind of experiment: Chloroform test on the mouse (protection against fibrillations caused by inhalation of chloroform). The class given is in vivo. As to conditions: ip, 20 min, read-out: Antiarhythmic activity, chloroform test on the mouse, AD50. The procedure: The product to be tested was administered intraperitoneally 20 minutes before chloroformic intoxication and the possible protection against the arhythmia was shown by recording of the electrocardiogram, which was effected from the appearance of the apnoea. The activity of the products is expressed by an AD50 (dose of product in mg/kg which protects 50% of the animals).

The test system of data set [2] is ventricular arhythmia caused by the aconitine. As to the kind of experiment: Aconitine test on the rat (delay of ventricular arhythmia caused by perfused aconitine). The class given is in vivo. As to conditions: iv, read-out: Antiarhythmic activity, aconitine test on the rat, ED50. The procedure: The principle of the method rests on the induction time of the ventricular arhythmia caused by the aconitine which is slowly fed by perfusion into rats. An antiarhythmic substance retards the appearance of the arhythmia and the delay is proportional to the activity of the substance.
Groups of 5 male rats were used. An individual anesthesia was effected (10% urethane: 1 g/kg/ip) in order to permit a catheterization of the vein of the penis. The electrocardiogram was recorded. At time T=0 the substance studied was injected in the form of an aqueous solution, at the rate of 2.5 ml of solution per kg in 30 seconds. At time T=60 seconds, say 30 seconds after the end of the injection, the aconitine was perfused at the rate of 20 μg per minute up to the appearance of supraventricular extra systoles. The time of perfusion of the aconitine was noted.
The results are expressed by an ED50, which is the dose of product, in mg/kg, increasing by 50% the time of perfusion of the aconitine in comparison with the perfusion time of aconitine for the control animals.

The nature of data set [3]: Acute toxicity to mice, intravenous. As to conditions: in vivo, male mouse DC1, i.v., 3 days observation. An excerpt: Toxicological properties of the compounds of formula (I): […]
The acute toxicities of the compounds of formula (I) (see results in the above Table) have been determined on the male mouse DC1 (Charles River), by the intravenous method. The LD50 have been calculated, after 3 days observation, by the cumulative method of J. J. Reed and H. Muench (Amer. J. Hyg., 27, 493, 1938).

The mark [4] stands for this setting: dose which protects 50% of the animals, intraperitoneal, 20 minutes before chloroform.

Regarding `C=C[C@H]1CNCC[C@H]1CCC(O)c1ccnc2ccc(OC)cc12` (mixture of isomers) [Example 5, Mixture of 3-[3(R)-ETHENYL 4(R)-PIPERIDYL]-1-(6-METHOXY-4-QUINOLYL)-1-(R)-PROPANOL and 3-[3(R)-ETHENYL 4(R)-PIPERIDYL]-1-(6-METHOXY-4-QUINOLYL)-1(S)-PROPANOL], the ED50 in data set [1] came out at 3 mg/kg; in data set [2] it was 0.44 mg/kg. Also, the LD50 at 72 h in data set [3] amounted to 21.5 mg/kg.
For `OC(CCC1CCNCC1)c1cc(-c2ccccc2)nc2ccccc12` (racemic) [Example 4, 1-(2-PHENYL-4-QUINOLYL)-3-(4-PIPERIDYL)-1-PROPANOL], in that order: 2.5 mg/kg, 1.22 mg/kg and 21 mg/kg.
As to `CC(C)(C)c1cc(C(O)CCC2CCNCC2)c2ccccc2n1` (racemic) [Example 12, 1-[2-(1,1-DIMETHYL-ETHYL)-4-QUINOLYL]-3-(4-PIPERIDYL)-1-PROPANOL], in data set [2], the ED50 was 0.8 mg/kg. The 50% lethal dose (LD50) at 72 h in data set [3] is 26 mg/kg.
Regarding `CC[C@H]1CNCC[C@H]1CC[C@@H](O)c1ccnc2ccc(OC)cc12` [8 (1(R)-propanol isomer)], the ED50 came out at 2.5 mg/kg in data set [1] (setting [4]) and 0.65 mg/kg in data set [2]. Further, the LD50 at 72 h in data set [3] is 29 mg/kg.
The matching figures for `CC[C@H]1CNCC[C@H]1CC[C@H](O)c1ccnc2ccc(OC)cc12` [8 (1(S)-propanol isomer)]: 2.5 mg/kg, 0.58 mg/kg and 17 mg/kg.
For the compound `C=C[C@H]1CN(C)CC[C@H]1CC[C@H](O)c1ccnc2ccc(OC)cc12` [9 (3(R)-ethenyl isomer)], the ED50 in data set [1] (setting [4]) was 5 mg/kg; in data set [2], 1 mg/kg. In addition, in data set [3], the 50% lethal dose (LD50) at 72 h amounted to 19 mg/kg.
Take `C=C[C@@H]1CN(C)CC[C@H]1CC[C@H](O)c1ccnc2ccc(OC)cc12` [9 (3(S)-ethenyl isomer)]: the ED50 is more than 5 mg/kg in data set [1] (setting [4]) and 1.4 mg/kg in data set [2]. Moreover, the LD50 at 72 h in data set [3] was determined as 33 mg/kg.
As to `C=C[C@H]1CNCC[C@H]1CC[C@H](O)c1ccnc2ccc(OC)cc12` [Example 6, 3-[3(R)-ETHENYL 4(R)-PIPERIDYL]-1-(6-METHOXY-4-QUINOLYL)-1(S)-PROPANOL], the figures for the ED50 in data set [1] and in data set [2] were 3 mg/kg and 0.43 mg/kg, respectively. In data set [3], this compound showed an LD50 at 72 h of 20.3 mg/kg.
As for `C=C[C@H]1CNCC[C@H]1CC[C@@H](O)c1ccnc2ccc(OC)cc12` [Example 7, 3-[3(R)-ETHENYL 4(R)-PIPERIDYL]-1-(6-METHOXY-4-QUINOLYL)-1(R)-PROPANOL], the ED50 in data set [1] was 3 mg/kg; in data set [2], 0.45 mg/kg. Further, in data set [3], the median lethal dose (LD50) at 72 h worked out at 33 mg/kg.
Turning to `C=C[C@H]1C[N@@]2CC[C@H]1C[C@@H]2[C@@H](O)c1ccnc2ccc(OC)cc12` [Quinidine sulfate, reference compound], the ED50 turned out to be 18 mg/kg in data set [1] (setting [4]) and 7.5 mg/kg in data set [2]. Moreover, the LD50 at 72 h in data set [3] is 60 mg/kg.
